In ChEMBL document CHEMBL1129179, “Antimicrobial evaluation of 3,1-benzoxazin-4-ones, 3,1-benzothiazin-4-ones, 4-alkoxyquinazolin-2-carbonitriles and N-arylimino-1,2,3-dithiazoles” (1996):
In brackets after ≈: the same amount, converted by molar mass.

Key:
Type in all cases: functional
Cryptococcus neoformans [1] = test: Minimum inhibitory concentration required for antifungal activity against Cryptococcus neoformans DSM 70219 strain
Candida albicans [2] = test: Minimum fungicidal concentration required for antifungal activity against Candida albicans ATCC 10231 strain
Pichia kudriavzevii [3] = test: Minimum inhibitory concentration required for antifungal activity against Issatchenkia orientalis DSM 6128 strain
[4] = Ratio of MFC99/MIC for antifungal activity against Cryptococcus neoformans DSM 70219 strain was determined
[5] = Ratio of MFC99/MIC for antifungal activity against Issatchenkia orientalis DSM 6128 strain was determined
Nakaseomyces glabratus [6] = test: Minimum fungicidal concentration required for antifungal activity against Candida glabrata DSM 6425 strain
[7] = Ratio of MFC99/MIC for antifungal activity against Candida tropicalis DSM 1346 strain was determined
Candida tropicalis [8] = test: Minimum fungicidal concentration required for antifungal activity against Candida tropicalis DSM 1346 strain
Pichia kudriavzevii [9] = test: Minimum fungicidal concentration required for antifungal activity against Issatchenkia orientalis DSM 6128 strain
Candida albicans [10] = test: Minimum inhibitory concentration required for antifungal activity against Candida albicans ATCC 10231 strain
Candida tropicalis [11] = test: Minimum inhibitory concentration required for antifungal activity against Candida tropicalis DSM 1346 strain
Cryptococcus neoformans [12] = test: Minimum fungicidal concentration required for antifungal activity against Cryptococcus neoformans DSM 70219 strain
[13] = Ratio of MFC99/MIC for antifungal activity against Candida glabrata DSM 6425 strain was determined
Nakaseomyces glabratus [14] = test: Minimum inhibitory concentration required for antifungal activity against Candida glabrata DSM 6425 strain
[15] = Ratio of MFC99/MIC for antifungal activity against Candida albicans ATCC 10231 strain was determined

SMILES | MIC (Cryptococcus neoformans [1]) [µg/mL] | MFC99 (Candida albicans [2]) [µg/mL] | MIC (Pichia kudriavzevii [3]) [µg/mL] | Ratio [4] | Ratio [5] | MFC99 (Nakaseomyces glabratus [6]) [µg/mL] | Ratio [7] | MFC99 (Candida tropicalis [8]) [µg/mL] | MFC99 (Pichia kudriavzevii [9]) [µg/mL] | MIC (Candida albicans [10]) [µg/mL] | MIC (Candida tropicalis [11]) [µg/mL] | MFC99 (Cryptococcus neoformans [12]) [µg/mL] | Ratio [13] | MIC (Nakaseomyces glabratus [14]) [µg/mL] | Ratio [15]
N#Cc1ccccc1/N=c1\ssnc1Cl | 16 (≈ 63.1 µM) | 16 (≈ 63.1 µM) | 16 (≈ 63.1 µM) | 1 | 1 | 16 (≈ 63.1 µM) | 1 | 16 (≈ 63.1 µM) | 16 (≈ 63.1 µM) | 16 (≈ 63.1 µM) | 16 (≈ 63.1 µM) | 16 (≈ 63.1 µM) | 1 | 16 (≈ 63.1 µM) | 1
C[C@@H]1[C@H](O)[C@@H](C)/C=C/C=C/C=C/C=C/C=C/C=C/C=C/[C@H](O[C@@H]2O[C@H](C)[C@@H](O)[C@H](N)[C@@H]2O)C[C@@H]2O[C@](O)(C[C@@H](O)C[C@@H](O)[C@H](O)CC[C@@H](O)C[C@@H](O)CC(=O)O[C@H]1C)C[C@H](O)[C@H]2C(=O)O [AMPHOTERICIN B] | 0.13 (≈ 0.141 µM) | 0.5 (≈ 0.541 µM) | 0.5 (≈ 0.541 µM) | 3.8 | 2 | 2 (≈ 2.16 µM) | 2 | 2 (≈ 2.16 µM) | 1 (≈ 1.08 µM) | 0.25 (≈ 0.271 µM) | 1 (≈ 1.08 µM) | 0.5 (≈ 0.541 µM) | 2 | 1 (≈ 1.08 µM) | 2
COc1cc(/N=c2\ssnc2Cl)cc(OC)c1OC | 16 (≈ 50.2 µM) | 16 (≈ 50.2 µM) | 16 (≈ 50.2 µM) | 2 | 2 | 16 (≈ 50.2 µM) | 2 | 32 (≈ 100 µM) | 32 (≈ 100 µM) | 16 (≈ 50.2 µM) | 16 (≈ 50.2 µM) | 32 (≈ 100 µM) | 1 | 16 (≈ 50.2 µM) | 1
COC(=O)c1ccccc1/N=c1\ssnc1Cl | 32 (≈ 112 µM) | 16 (≈ 55.8 µM) | 16 (≈ 55.8 µM) | 1 | 2 | 32 (≈ 112 µM) | 1 | 16 (≈ 55.8 µM) | 32 (≈ 112 µM) | 16 (≈ 55.8 µM) | 16 (≈ 55.8 µM) | 32 (≈ 112 µM) | 2 | 16 (≈ 55.8 µM) | 1
